Reference: patent publication US6207648A, “Methods of using cytochrome P450 reductase for the enhancement of P450-based anti-cancer gene therapy” (priority 1998, dated 2001)
“Also recorded” adds a separate entry of the source. Like-named read-outs stand apart in the source and are kept apart here.

Columns and labels:
9L/wt cells = assay: Intrinsic chemosensitivity of 9L/wt cells to chemically activated CPA and IFA; assay type: cell-based, rat
Description: 9L/wt cells seeded at 2000 cells/ well in 48-well plates were treated for 3-4 hours with increasing concentrations of 4-hydroperoxy-CPA or 4-hydroxyperoxy-IFA (0 to 100 μM). Cells were then incubated in fresh drug-free media and allowed to grow for 4 days. Cell growth as a percent of drug-free controls was then determined by crystal violet staining. Data shown are mean±range for duplicate samples.
Briefly, culture dishes were washed once with phosphate buffered saline (PBS), stained for 10 minutes with crystal violet (1.25 g crystal violet (Sigma) dissolved in 500 ml containing 50 ml of 37% formaldehyde and 450 ml methanol), and then washed with PBS, twice for 20 minutes per wash. Absorbance values were measured in an SLT Spectra microtiter plate reader using a 595 nm filter. Background absorbance determined from wells containing culture media alone was subtracted from each value.

[1] = test system: 9L gliosarcoma cells (parental, CYP2B1+, CYP2B1+ RED+++); assay: In vitro growth inhibition assay, XTT (Example 1); conditions: for increase of cell survival ratio in CYP2B1+ RED+++ cells / rescue of CYP2B1+ and CYP2B1+ RED+++ cells from CPA toxicity: 1 mM CPA, AADP 0.5 mM or DPI 5 μM; for rescue of CYP2B1+ and CYP2B1+ RED+++ cells from CPA toxicity: FIG. 4
Description: Cells (1000/well) seeded in 96-well plates were treated with the indicated concentrations of CPA for 4 days. Corresponding controls received no drug treatment. Cell survival was determined by an XTT calorimetric assay. Data (mean for triplicate samples) were expressed as growth ratio (%), i. e., cell number (XTT activity) in drug treated plates as a percentage of the corresponding drug-free controls.
Cells (500/well) seeded in 96-well plates were treated with 1 mM cyclophosphamide in the absence or presence of the RED inhibitors AADP (0.5 mM) or DPI (5 μM). Corresponding controls received no drug treatment. Cell survival was determined by an XTT colorimetric assay. Data (mean for triplicate samples) are expressed as growth ratio (%), i.e., cell number (XTT activity) in drug treated plates as a percentage of the corresponding drug-free controls and are representative of 2-3 independent experiments. AADP and DPI were added to the cells 30 minutes prior to CPA treatment.
(B) Growth inhibition assay--Cells (1000/well) seeded in 96 well plates were treated with the indicated concentrations of CPA for 4-5 days. Corresponding controls received no drug treatment. Cell survival was determined by an XTT colorimetric assay, a cell proliferation assay that measures mitochondrial dehydrogenase activity of viable cells (Scudiero, D. A., et al., Cancer Res. 48:4827-4833 (1988)).

[2] = test system: 9L, 9L/2B1 and 9L/2B1/RED cells; assay: Adriamycin growth inhibition assay; assay type: cell-based, rat
Description: The indicated 9L, 9L/2B1 and 9L/2B1/RED clonal cell lines, described in Example 1, were treated with Adriamycin for 2 days at the indicated drug concentrations. Cytotoxicity was measured after 5 days continuous culture using a growth inhibition assay, as described under FIG. 2B of Example 1. […] Data shown are averages of duplicates.
(§1) Corresponding controls received no drug treatment.
9L gliosarcoma cell lines stably expressing rat P450 2B1 and rat RED: The following rat 9L gliosarcoma transfectants were those already described in Example 1: P3 and P17, which stably express P450 gene CYP2B1; 9L-lacZ, which stably expresses the E. coli β-galactosidase gene; R26, which stably expresses rat RED but not P450; and PR1, PR7, PR11, which stably express rat P450 2B1 and rat RED.

[3] = in vivo; cited from earlier work
9L/pBabe bystander cells = assay: Bystander cytotoxicity/co-culture with cell culture inserts; assay type: cell-based, rat; conditions: Rattus norvegicus, 96 h, 9L/2B6/reductase, 0.67 mM
Description: FIGS. 18A and 18B are graphs depicting the bystander cytotoxicity of 9L/2B6/reductase and 9L/2B6 cells. In FIG. 18A, bystander cytotoxicity of 9L/2B6/reductase cells is compared to that of 9L/2B6 cells. In both cases, 9L/pBabe served as the bystander cells. 9L/pBabe cells were plated in duplicate at 10^5 cells/well of a 6-well plate (lower chamber). 9L/2B6/reductase cells or 9L/2B6 cells were plated in 25 mm cell culture inserts (upper chamber) at concentrations ranging from 10^4 to 6×10^5 cells, corresponding to ratios of 0.1 to 6 relative to the bystander 9L/pBabe cells growing in the lower chamber, as shown on the x-axis. Cells were incubated in a total volume of 3 ml Dulbecco's minimal essential medium (DMEM), 10% FBS, containing 1 mM CPA, final CPA concentration.
The experimental design was the same as in FIG. 18A, except that the final drug concentration was 0.67 mM. Data shown for both panels correspond to the survival of 9L/pBabe bystander cells in the lower chamber.
Bystander cytotoxicity/co-culture experiments: 9L/pBabe cells were plated in duplicate at 10^5 cells/well in the lower chamber of a 6-well Falcon co-culture plate (30 mm diameter wells) (Falcon 3046). 9L/2B6/reductase cells were plated in 25 mm cell culture inserts (0.4 μm pore size; Falcon 3090), at dilutions ranging from 0. 1 to 6 times the number of 9L/pBabe cells plated in the lower chamber. […] Relative cell numbers were quantitated 4 days later by crystal violet staining.

human cytochrome P450s = conditions: cited from earlier work
[4] = test system: rodent and human tumor xenograft models; conditions: cited from earlier work
[5] = test system: 9L/pBabe, 9L/2B6, 9L/hRED and 9L/2B6/hRED gliosarcoma cells
Description: Cells were seeded at 4000 cells/well in 48-well plates and treated with increasing concentrations of CPA for 4 days. Cell growth in comparison to drug-free controls was determined by crystal violet staining and is presented as mean±SD for n=3 replicates.
FIG. 21 is a graph depicting the cytotoxic effects of the bioreductive drug TPZ toward 9L/pBabe control cells and 9L cells transduced with retroviruses encoding human RED and/or P450 2B6 under normoxic culture conditions. Cells were seeded at 4000 cells/well in 48-well plates and treated with increasing concentrations of TPZ for 4 days. Cell growth in comparison to drug-free controls was determined by crystal violet staining and is presented as mean±SD for n=3 replicates.
FIG. 22 is a graph depicting the cytotoxicity of increasing concentrations of TPZ under hypoxic conditions (1% O2) toward 9L tumor cells transduced with retroviruses encoding P450 2B6 and/or human RED. 9L/pBabe cells served as controls. Cells were seeded at 4000 cells/well in 48-well plates and treated with increasing concentrations of TPZ for 4 days. Cell growth in comparison to drug-free controls was determined by crystal violet staining and is presented as mean±SD for n=3 replicates.
FIGS. 24A, 24B and 24C are graphs depicting the cytotoxic effects of TPZ (5 or 10 μM, as indicated) in combination with increasing concentrations of CPA under normoxic culture conditions (19.6% O2, 5% CO2). The data shown were obtained using 9L/2B6/hRED cells (FIG. 24A), 9L/hRED cells (FIG. 24B) and 9L/pBabe (control) cells (FIG. 24C). Data were compared to the cytotoxicity of increasing concentrations of CPA alone (i. e., in the absence of TPZ) measured using the same pools of tumor cells. Cells were seeded at 4000 cells/well in 48-well plates and then treated with the indicated drug concentrations for 4 days. Cell growth in comparison to drug-free controls (i.e., in the absence of CPA and TPZ) was determined by crystal violet staining and is presented as mean±SD for n=3 replicates.
FIGS. 25A, 25B and 25C are graphs depicting the cytotoxic effects of TPZ (0.5 or 1.5 μM, as indicated) in combination with increasing concentrations of CPA under hypoxic culture conditions (1% O2, 5% CO2). The data shown were obtained using 9L/2B6/hRED cells (FIG. 25A), 9L/hRED cells (FIG. 25B) and 9L/pBabe (control) cells (FIG. 25C). Data were compared to the cytotoxicity of increasing concentrations of CPA alone (i.e., in the absence of TPZ) measured using the same pools of tumor cells. Cells were seeded at 4000 cells/well in 48-well plates and then treated with the indicated drug concentrations for 4 days. Cell growth in comparison to drug-free controls (i.e., in the absence of CPA and TPZ) was determined by crystal violet staining and is presented as mean±SD for n=3 replicates.
Cytotoxicity assays: To evaluate the chemosensitivity of the P450- and P450/RED-expressing 9L tumor cells, cells were plated in triplicate at 4000 cells/well of a 48-well plate 18-24 hours prior to drug treatment. Cells were then treated with drugs (0 to 1 mM CPA or 0 to 50 μM TPZ, as indicated in each experiment) and placed in a tissue culture incubator maintained under hypoxic conditions (1% O2, 5% CO2, 94% N2) or under normoxic conditions (19.6% O2, 5% CO2, 75.4% N2) for a period of 4 days. 9L/pBabe cells, which were transduced with the empty retroviral plasmid pBabe-puro (see, Example 2), served as controls. Cells remaining after this time were quantitated using a crystal violet/alcohol-extraction assay, as described under Example 2. Data are presented as cell number relative to drug-free controls, mean±SD values for triplicate samples, unless indicated otherwise.

[6] = test system: 9L gliosarcoma cells (parental, CYP2B1+, CYP2B1+ RED+++); assay: In vitro colony formation cytotoxicity assay (Example 1); assay type: cell-based, rat; conditions: FIG. 3A
From the text: FIGS. 2A and 2C depict the results of a colony formation cytotoxicity assay.
FIG. 3A depicts results from a colony formation cytotoxicity assay. […] The survival fraction is expressed as the number of colonies in each treatment group compared to the untreated control.
as §1

9L tumor cells = assay: Control experiment: effect of semicarbazide on cell viability; assay type: cell-based, rat; conditions: 5 mM, up to 48 hours
CYP2C9 = conditions: subset of cancer patients; cited from earlier work
P450 2C9 = conditions: cited from earlier work

O=P1(N(CCCl)CCCl)NC(OO)CCO1 (stereo not shown) [4-hydroperoxy-CPA]
sensitivity of 9L cells to activated CPA compared to activated IFA (9L/wt cells; 0 to 100 μM, 3-4 h, 4 days regrowth): approximately 3 fold | intrinsic sensitivity of 9L cells to activated CPA compared to activated IFA (9L/wt cells; FIG. 16): greater intrinsic sensitivity

Nc1ccc[n+]([C@@H]2O[C@H](COP(=O)([O-])OP(=O)(O)OC[C@H]3O[C@@H](n4cnc5c(N)ncnc54)[C@H](O)[C@@H]3O)[C@@H](O)[C@H]2O)c1 [AADP, 3-aminopyridine adenine dinucleotide]
toxicity to the cells in absence of CPA ([1]; 0.5 mM): no toxicity to the cells | increase of cell survival ratio in CYP2B1+ RED+++ cells [1]: 2-3 fold | rescue of CYP2B1+ and CYP2B1+ RED+++ cells from CPA toxicity [1]: partially rescued

COc1cccc2c1C(=O)c1c(O)c3c(c(O)c1C2=O)C[C@@](O)(C(=O)CO)C[C@@H]3O[C@H]1C[C@H](N)[C@H](O)[C@H](C)O1 [Adriamycin, doxorubicin]
toxicity to 9L and 9L/lacZ cells without P450 metabolism ([2]; 100 nM, 2 days): toxic to 9L cells | effect of co-expression of RED with P450 2B1 on Adriamycin cytotoxicity ([2]; PR11 and PR7): large enhancement in Adriamycin cytotoxicity; also recorded: Enhanced cytotoxicity | chemosensitization to Adriamycin in line PR1 ([2]; RED overexpression approximately 2-fold): more modest chemosensitization | effect of RED overexpression alone on Adriamycin cytotoxicity ([2]; line R26): did not enhance the cytotoxicity

c1ccc2c(c1)[I+]c1ccccc1-2 [DPI, diphenyleneiodonium chloride]
increase of cell survival ratio in CYP2B1+ RED+++ cells [1]: 3-5 fold | rescue of CYP2B1+ and CYP2B1+ RED+++ cells from CPA toxicity [1]: partially rescued | inhibition at 5 µM ([1]; Rattus norvegicus, read-out: growth inhibition in absence of CPA): ~20%

O=P1(NCCCl)OCCCN1CCCl (stereo not shown) [IFA, ifosfamide]
side effects of systemic distribution of drug and alkylating metabolites [3]: cardiotoxicity, renal toxicity, marrow suppression, and neurotoxoxicity | cytotoxicity at 670 µM (9L/pBabe bystander cells; cell ratio 6:1, read-out: maximum bystander cytotoxicity): ~50% | cytotoxicity at 670 µM (9L/pBabe bystander cells; cell ratios up to 3:1, read-out: bystander cytotoxicity): ≤ 25%

Clc1cnc(Oc2ccc(Oc3ncc(Cl)cc3Cl)cc2)c(Cl)c1 [TCPOBOP, 1,4-bis-2-(3,5-dichloropyridyloxybenzene)]
induction of human cytochrome P450s in colon and breast tumors (human cytochrome P450s): profound inducer

Nc1n[n+]([O-])c2ccccc2[n+]1[O-] [TPZ, 3-amino-1,2,4-benzotriazine-1,4-di-N-oxide]
effect of TPZ on activity of CPA and other cancer chemotherapeutics ([4]; in vivo): enhance the activity of CPA | bone marrow toxicity with TPZ combination ([4]; with CPA and other chemotherapeutics): corresponding increase in bone marrow toxicity | effect of P450 2B6 and RED on TPZ cytotoxicity [5]: substantial increase in cytotoxicity | effect of P450 2B6 expression alone on TPZ cytotoxicity [5]: no effect on the cytotoxicity | effect of P450 2B6 on TPZ cytotoxicity [5]: Some enhanced cytotoxicity | effect of RED gene transfer on TPZ sensitivity [5]: chemosensitized 9L tumor cells | effect of RED gene transfer, with or without P450 2B6, on TPZ cytotoxicity [5]: increase in TPZ cytotoxicity | intrinsic cytotoxicity under hypoxic vs normoxic conditions [5]: intrinsically more cytotoxic

CC(C)(C(=O)c1cccnc1)c1cccnc1 [metyrapone]
blocking of CPA cytotoxicity toward CYP2B1+ cells ([6]; 10 μM and higher, P3 and P17): significantly blocked the cytotoxic effects | inhibition of CPA cytotoxicity in RED-overexpressing CYP2B1+ cells ([6]; 10 μM): only slightly inhibited the cytotoxic effect | blocking of CPA cytotoxicity toward CYP2B1+ cells ([1]; 10 μM and higher, P3 and P17, FIG. 3): significantly blocked the cytotoxic effects | inhibition of CPA cytotoxicity in RED-overexpressing CYP2B1+ cells ([1]; 10 μM, FIG. 3): only slightly inhibited the cytotoxic effect

NNC(N)=O [semicarbazide]
effect on cell viability (9L tumor cells): no detectable effect on cell viability

Nc1ccc(S(=O)(=O)Nc2ccnn2-c2ccccc2)cc1 [sulfaphenazole]
effect on elimination of CPA (CYP2C9): slows the elimination of CPA | inhibition of P450 2C9-catalyzed human liver CPA activation (P450 2C9): inhibits P450 2C9-catalyzed human liver CPA activation
